Source: US9994594B2, “Inhibitors of arginase and their therapeutic applications” (MARS, INCORPORATED, priority 2010, dated 2018)
Where a name gives a salt, the structure may show the parent alone.

Tests used:
human arginase I (ARG I) = target: T1, human arginase I (ARG I) (Homo sapiens, UniProt P05089); experiment: Inhibition of arginase I, spectrophotometric urea assay at 530 nm; assay type: biochemical; conditions: Formula I compounds, Table 2; read-out: Potency (ARG I)
T1 sequence (P05089 1-322): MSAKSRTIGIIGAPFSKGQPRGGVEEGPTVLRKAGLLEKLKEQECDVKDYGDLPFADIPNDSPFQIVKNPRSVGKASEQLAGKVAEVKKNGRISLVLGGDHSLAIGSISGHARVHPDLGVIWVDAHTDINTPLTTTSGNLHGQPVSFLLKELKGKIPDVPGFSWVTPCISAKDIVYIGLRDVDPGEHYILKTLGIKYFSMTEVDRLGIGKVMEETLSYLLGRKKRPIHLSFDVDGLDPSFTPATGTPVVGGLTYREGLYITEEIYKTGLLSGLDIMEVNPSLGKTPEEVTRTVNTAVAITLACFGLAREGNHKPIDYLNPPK
Procedure, shortened: (§1)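 IC50 was derived by regression of OD530 normalized to uninhibited-enzyme controls against log concentration. Urea from 60-min, 37 °C turnover of L-arginine with manganese sulfate was detected after acid o-phthaldialdehyde/primaquine quench and 10 min colour development. Arginase I and II came from 100 ng/ml stocks in pH 7.4 phosphate with ovalbumin.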

arginase II (ARG II) = target: T2, arginase II (ARG II) (Homo sapiens, UniProt P78540); experiment: Inhibition of arginase II, spectrophotometric urea assay at 530 nm; assay type: biochemical; conditions: Formula I compounds, Table 2; read-out: Potency (ARG II)
T2 sequence (P78540 23-354): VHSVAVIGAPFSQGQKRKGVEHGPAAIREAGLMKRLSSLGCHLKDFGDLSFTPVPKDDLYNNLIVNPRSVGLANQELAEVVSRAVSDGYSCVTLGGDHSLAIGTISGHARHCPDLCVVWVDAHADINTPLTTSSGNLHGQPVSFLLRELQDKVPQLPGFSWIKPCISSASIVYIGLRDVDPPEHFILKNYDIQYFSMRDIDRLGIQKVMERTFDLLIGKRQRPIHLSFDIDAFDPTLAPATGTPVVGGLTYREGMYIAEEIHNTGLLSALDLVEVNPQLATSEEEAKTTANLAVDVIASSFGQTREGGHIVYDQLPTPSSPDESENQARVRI
Procedure, shortened: as §1

| IC50 (human arginase I (ARG I)) | IC50 (arginase II (ARG II)) | Structure (SMILES) |
| --- | --- | --- |
| 0.251 to 1 µM | 0.251 to 1 µM | COC[C@@H]1CCCN1CC[C@](N)(CCCCB(O)O)C(=O)O [compound 2, (R)-2-amino-6-borono-2-(2-((S)-2-(methoxymethyl)pyrrolidin-1-yl)ethyl)hexanoic acid dihydrochloride] |
| 1 to 2 µM | 1 to 2 µM | COC[C@H]1CCCN1CC[C@](N)(CCCCB(O)O)C(=O)O [compound 3, (R)-2-amino-6-borono-2-(2-((R)-2-(methoxymethyl)pyrrolidin-1-yl)ethyl)hexanoic acid dihydrochloride] |
| 0.251 to 1 µM | 0.251 to 1 µM | N[C@](CCCCB(O)O)(CCN1CCC(O)CC1)C(=O)O [compound 4, (R)-2-amino-6-borono-2-(2-(4-hydroxypiperidin-1-yl)ethyl)hexanoic acid dihydrochloride] |
| 1 to 2 µM | 2 to 5 µM | N[C@](CCCCB(O)O)(CCN1CCC[C@H](O)C1)C(=O)O [compound 5, (R)-2-amino-6-borono-2-(2-((S)-3-hydroxypiperidin-1-yl)ethyl)hexanoic acid dihydrochloride] |
| 0.251 to 1 µM | 1 to 2 µM | COc1ccc(CCN(C)CC[C@](N)(CCCCB(O)O)C(=O)O)cc1OC [compound 6, (R)-2-amino-6-borono-2-(2-((3,4-dimethoxyphenethyl)(methyl)amino)ethyl)hexanoic acid dihydrochloride] |
| 0.0001 to 0.25 µM | 0.251 to 1 µM | N[C@](CCCCB(O)O)(CCN1CC[C@@H](CO)C1)C(=O)O [compound 7, (R)-2-amino-6-borono-2-(2-((R)-3-(hydroxymethyl)pyrrolidin-1-yl)ethyl)hexanoic acid dihydrochloride] |
| 1 to 2 µM | 2 to 5 µM | N[C@](CCCCB(O)O)(CCN1CCSCC1)C(=O)O [compound 8, (R)-2-amino-6-borono-2-(2-thiomorpholinoethyl)hexanoic acid dihydrochloride] |
| 0.0001 to 0.25 µM | 0.251 to 1 µM | N[C@](CCCCB(O)O)(CCN1CCC(CCO)CC1)C(=O)O [compound 9, (R)-2-amino-6-borono-2-(2-(4-(2-hydroxyethyl)piperidin-1-yl)ethyl)hexanoic acid dihydrochloride] |
| 0.0001 to 0.25 µM | 0.251 to 1 µM | N[C@](CCCCB(O)O)(CCN1CCC[C@H]1CO)C(=O)O [compound 10, (R)-2-amino-6-borono-2-(2-((S)-2-(hydroxymethyl)pyrrolidin-1-yl)ethyl)hexanoic acid] |
| 0.0001 to 0.25 µM | 0.0001 to 0.25 µM | CN(CCc1ccccc1)CC[C@](N)(CCCCB(O)O)C(=O)O [compound 11, (R)-2-amino-6-borono-2-(2-(methyl(phenethyl)amino)ethyl) hexanoic acid dihydrochloride] |
| 0.0001 to 0.25 µM | 0.0001 to 0.25 µM | CN(CC[C@](N)(CCCCB(O)O)C(=O)O)C[C@@H](O)c1cccc(O)c1 [compound 12, (R)-2-amino-6-borono-2-(2-(((S)-2-hydroxy-2-(3-hydroxyphenyl)ethyl)(methyl)amino)ethyl)hexanoic acid dihydrochloride] |
| 0.0001 to 0.25 µM | 0.251 to 1 µM | N[C@](CCCCB(O)O)(CCN1CCCCC1)C(=O)O [compound 13, (R)-2-amino-6-borono-2-(2-(piperidin-1-yl)ethyl)hexanoic acid] |
| 0.043 µM | > 5 µM | C=CCC(N)(CCCCB(O)O)C(=O)O (stereo not drawn) [compound 14, 2-allyl-2-amino-6-boronohexanoic acid] |
| 2 to 5 µM | 2 to 5 µM | CC[C@](N)(CCCCB(O)O)C(=O)O [compound 15, (S)-2-amino-6-borono-2-ethylhexanoic acid hydrochloride] |
| 0.251 to 1 µM | 1 to 2 µM | NC(CCCCB(O)O)(CCN1CCCC1)C(=O)O (stereo not drawn) [compound 16, 2-amino-6-borono-2-(2-(pyrrolidin-1-yl)ethyl)hexanoic acid] |
| 2 to 5 µM | 2 to 5 µM | NC(CCCCB(O)O)(CCN1CCN(c2ncccn2)CC1)C(=O)O (stereo not drawn) [compound 17, 2-Amino-6-borono-2-[2-(4-pyrimidin-2-yl-piperazin-1-yl)ethyl]-hexanoic acid trihydrochloride] |
| 2 to 5 µM | 2 to 5 µM | CN(CCC(N)(CCCCB(O)O)C(=O)O)CC(=O)O (stereo not drawn) [compound 18, 2-amino-6-borono-2-(2-((carboxymethyl)(methyl)amino)ethyl)hexanoic acid dihydrochloride] |

| IC50 (human arginase I (ARG I)) | IC50 (arginase II (ARG II)) | Structure (SMILES) |
| --- | --- | --- |
| 2 to 5 µM | 2 to 5 µM | NC(CCCCB(O)O)(CCN(CCO)Cc1ccccc1)C(=O)O (stereo not drawn) [compound 20, 2-Amino-2-{2-[benzyl-(2-hydroxyethyl)-amino]-ethyl}-6-borono-hexanoic acid dihydrochloride] |
| 1 to 2 µM | 1 to 2 µM | NC(CCCCB(O)O)(CCN1CCC(C(=O)O)CC1)C(=O)O (stereo not drawn) [compound 21, 1-(3-amino-7-borono-3-carboxyheptyl)piperidine-4-carboxylic acid] |
| 0.251 to 1 µM | 0.251 to 1 µM | NC(CCCCB(O)O)(CCN1CCC(CO)CC1)C(=O)O (stereo not drawn) [compound 22, 2-amino-6-borono-2-(2-(4-(hydroxymethyl)piperidin-1-yl)ethyl)hexanoic acid] |
| 0.251 to 1 µM | 0.251 to 1 µM | CCN(CC)C(=O)C1CCCN(CCC(N)(CCCCB(O)O)C(=O)O)C1 (stereo not drawn) [compound 23, 2-Amino-6-borono-2-[2-(3-diethylcarbamoyl-piperidin-1-yl)-ethyl]-hexanoic acid dihydrochloride] |
| 0.251 to 1 µM | 0.251 to 1 µM | COc1cc2c(cc1OC)CN(CCC(N)(CCCCB(O)O)C(=O)O)CC2 (stereo not drawn) [compound 26, 2-Amino-6-borono-2-[2-(6,7-dimethoxy-3,4-dihydro-1H-isoquinolin-2-yl)ethyl]-hexanoic acid dihydrochloride] |
| 1 to 2 µM | 1 to 2 µM | COc1ccc(CN(C)CCC(N)(CCCCB(O)O)C(=O)O)cc1 (stereo not drawn) [compound 27, 2-amino-6-borono-2-(2-((4-methoxybenzyl)(methyl)amino)ethyl)hexanoic acid dihydrochloride] |
| 0.251 to 1 µM | 1 to 2 µM | NC(CCCCB(O)O)(CCN1CC=C(c2ccccc2)CC1)C(=O)O (stereo not drawn) [compound 28, 2-amino-6-borono-2-(2-(4-phenyl-5,6-dihydropyridin-1(2H)-yl)ethyl)hexanoic acid dihydrochloride] |
| 0.251 to 1 µM | 1 to 2 µM | NC(CCCCB(O)O)(CCN1CCc2sccc2C1)C(=O)O (stereo not drawn) [compound 29, 2-amino-6-borono-2-(2-(6,7-dihydrothieno[3,2-c]pyridin-5(4H)-yl)ethyl)hexanoic acid dihydrochloride] |
| 0.251 to 1 µM | 1 to 2 µM | NC(CCCCB(O)O)(CCN1CCc2[nH][nH]c(=O)c2C1)C(=O)O (stereo not drawn) [compound 30, 2-amino-6-borono-2-(2-(3-oxo-2,3,6,7-tetrahydro-1H-pyrazolo[4,3-c]pyridin-5(4H)-yl)ethyl)hexanoic acid dihydrochloride] |
| 0.251 to 1 µM | 0.251 to 1 µM | COc1ccc(C2=CCN(CCC(N)(CCCCB(O)O)C(=O)O)CC2)cc1 (stereo not drawn) [compound 31, 2-amino-6-borono-2-(2-(4-(4-methoxyphenyl)-5,6-dihydropyridin-1(2H)-yl)ethyl)hexanoic acid dihydrochloride] |
| 0.251 to 1 µM | 0.251 to 1 µM | COC[C@@H]1CCCN1CCC(N)(CCCCB(O)O)C(=O)O (stereo partly drawn) [compound 33, 2-amino-6-borono-2-(2-((S)-2-(methoxymethyl)pyrrolidin-1-yl)ethyl)hexanoic acid dihydrochloride] |
| 0.251 to 1 µM | 1 to 2 µM | NC(CCCCB(O)O)(CCN1CCC(O)(Cc2ccccc2)CC1)C(=O)O (stereo not drawn) [compound 34, 2-amino-2-(2-(4-benzyl-4-hydroxypiperidin-1-yl)ethyl)-6-boronohexanoic acid dihydrochloride] |
| 0.251 to 1 µM | 1 to 2 µM | NC(CCCCB(O)O)(CCN1CCc2ccccc2C1)C(=O)O (stereo not drawn) [compound 36, 2-amino-6-borono-2-(2-(3,4-dihydroisoquinolin-2(1H)-yl)ethyl)hexanoic acid dihydrochloride] |
| 0.251 to 1 µM | 1 to 2 µM | CCN(CC)CCC(N)(CCCCB(O)O)C(=O)O (stereo not drawn) [compound 37, 2-amino-6-borono-2-(2-(diethylamino)ethyl)hexanoic acid dihydrochloride] |
| 2 to 5 µM | 2 to 5 µM | NC(CCCCB(O)O)(CCN1CCC(=O)CC1)C(=O)O (stereo not drawn) [compound 38, 2-amino-6-borono-2-(2-(4-oxopiperidin-1-yl)ethyl)hexanoic acid dihydrochloride] |
| 1 to 2 µM | 2 to 5 µM | NC(CCCCB(O)O)(CCN1CCC(C(F)(F)F)CC1)C(=O)O (stereo not drawn) [compound 39, 2-amino-6-borono-2-(2-(4-(trifluoromethyl)piperidin-1-yl)ethyl)hexanoic acid dihydrochloride] |
